Measured values from patent publication US20250129067A1 (Progentos Therapeutics, Inc., priority 2021, published 2025).

How the values were obtained:
[1] = target: PDGFRα (Homo sapiens (Human), UniProt P16234); test: PDGFRα kinase enzyme assay (Promega PDGFRα Kinase Enzyme System, ADP-Glo); format: biochemical; conditions: 11-point dose response, 10,000 nM to 0.169 nM, 150 uM ATP, BLQ = below limit of quantitation; for IC50: read-out: IC50 Values on PDGFRα Kinase Inhibition, IC50
Method in brief: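 Purified PDGFRα protein (20 ng) reacted with test compound per the Promega kinase system protocol. ADP formed was measured by ADP-Glo luminescence against a standard curve, giving IC50.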

[2] = system: Oligodendrocyte progenitor cells (OPCs); test: In vitro OPC differentiation assay, GPR17 expression (immunocytochemistry); conditions: 72 hours, fold change over vehicle; for GPR17 Fold Induction (Over Vehicle; 3 μM): 3 μM (10× concentration, final 0.3 μM); for GPR17 Fold Induction (Over Vehicle; 5 μM): 5 μM (10× concentration, final 0.5 μM)

Chain of PDGFRα (P16234 24-1089): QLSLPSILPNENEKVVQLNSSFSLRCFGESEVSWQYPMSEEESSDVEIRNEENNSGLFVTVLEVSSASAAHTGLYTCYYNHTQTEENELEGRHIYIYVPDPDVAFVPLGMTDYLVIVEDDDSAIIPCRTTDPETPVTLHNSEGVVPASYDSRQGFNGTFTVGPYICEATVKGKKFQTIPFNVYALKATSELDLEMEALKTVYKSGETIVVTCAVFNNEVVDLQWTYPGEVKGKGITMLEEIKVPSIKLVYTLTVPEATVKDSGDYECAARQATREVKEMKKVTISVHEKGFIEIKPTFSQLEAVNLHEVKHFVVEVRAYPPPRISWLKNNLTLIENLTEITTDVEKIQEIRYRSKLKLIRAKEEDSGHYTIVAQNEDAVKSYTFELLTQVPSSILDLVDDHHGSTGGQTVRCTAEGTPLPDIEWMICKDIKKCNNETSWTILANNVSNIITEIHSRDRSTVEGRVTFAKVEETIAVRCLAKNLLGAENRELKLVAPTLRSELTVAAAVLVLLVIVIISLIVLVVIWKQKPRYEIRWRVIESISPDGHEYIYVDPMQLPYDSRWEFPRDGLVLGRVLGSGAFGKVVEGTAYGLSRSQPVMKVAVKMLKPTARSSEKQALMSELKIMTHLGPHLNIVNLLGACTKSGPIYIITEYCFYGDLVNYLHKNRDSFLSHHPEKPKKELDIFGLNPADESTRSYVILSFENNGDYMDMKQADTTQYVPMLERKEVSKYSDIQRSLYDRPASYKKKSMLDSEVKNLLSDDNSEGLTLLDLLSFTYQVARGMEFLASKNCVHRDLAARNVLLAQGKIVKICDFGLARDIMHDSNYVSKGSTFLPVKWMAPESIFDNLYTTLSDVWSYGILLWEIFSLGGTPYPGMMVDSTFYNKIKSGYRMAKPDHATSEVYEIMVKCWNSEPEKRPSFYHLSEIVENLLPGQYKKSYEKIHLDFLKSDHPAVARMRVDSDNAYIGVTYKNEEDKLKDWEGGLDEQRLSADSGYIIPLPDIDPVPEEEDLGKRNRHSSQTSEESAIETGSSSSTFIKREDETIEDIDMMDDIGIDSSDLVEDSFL

Row | Compound | IC50 [1] | GPR17 Fold Induction (Over Vehicle; 3 μM) [2] | IC50 Values on PDGFRα Kinase Inhibition, IC50 (nM) [1] | GPR17 Fold Induction (Over Vehicle; 5 μM) [2]
1 | CC(C)(C)OC(=O)N1CCN(c2cnn3cc(-c4cnn5c4CCCC5)ccc23)CC1 [Compound 236, tert-butyl 4-(4,5,6,7-tetrahydro-[3,6′-bipyrazolo[1,5-a]pyridin]-3′-yl)piperazine-1-carboxylate] | 0.696 µM | 6.03 | – | –
2 | C[C@@H](NC(=O)N1CCN(c2cnn3cc(-c4cnn(C)c4)ccc23)CC1)c1ccc(C(F)(F)F)cc1 [Compound 288, 4-[6-(1-methyl-1H-pyrazol-4-yl)pyrazolo[1,5-a]pyridin-3-yl]-N-{(1R)-1-[4-(trifluoromethyl)phenyl]ethyl}piperazine-1-carboxamide] | – | 5.92 | BLQ | –
3 | CN(CCNc1ncc(Cc2ccccc2)cn1)c1cnn2cc(-c3cnn(C)c3)ccc12 [Compound 125, N^1-(5-benzylpyrimidin-2-yl)-N^2-methyl-N^2-(6-(1-methyl-1H-pyrazol-4-yl)pyrazolo[1,5-a]pyridin-3-yl)ethane-1,2-diamine] | > 10 µM | 1.09 | – | –
4 | CN1CCC(COC(=O)N2CCN(c3cnn4cc(-c5cnn(C)c5)ccc34)CC2)CC1 [Compound 20, (1-methylpiperidin-4-yl)methyl 4-[6-(1-methyl-1H-pyrazol-4-yl)pyrazolo[1,5-a]pyridin-3-yl]piperazine-1-carboxylate] | > 10 µM | 0.58 | – | –
5 | CN(CCN(C)c1cnn2cc(-c3cnn(C)c3)ccc12)c1ncc(Cc2ccccc2)cn1 [Compound 127, N^1-(5-benzylpyrimidin-2-yl)-N^1,N^2-dimethyl-N^2-(6-(1-methyl-1H-pyrazol-4-yl)pyrazolo[1,5-a]pyridin-3-yl)ethane-1,2-diamine] | > 10 µM | 1.36 | – | –
6 | Cn1cc(-c2ccc3c(N4CCN(c5ncc(Sc6ccccc6)cn5)CC4)cnn3c2)cn1 [Compound 188, 6-(1-methyl-1H-pyrazol-4-yl)-3-(4-(5-(phenylthio)pyrimidin-2-yl)piperazin-1-yl)pyrazolo[1,5-a]pyridine] | 5.1 µM | 6.03 | – | –
7 | Cn1cc(-c2ccc3c(N4CC(c5ncc(Cc6ccccc6)cn5)C4)cnn3c2)cn1 [Compound 72, 3-[3-(5-benzylpyrimidin-2-yl)azetidin-1-yl]-6-(1-methyl-1H-pyrazol-4-yl)pyrazolo[1,5-a]pyridine] | 2.97 µM | 4.75 | – | –
8 | C[C@@H](NS(=O)(=O)N1CCN(c2cnn3cc(-c4cnn(C)c4)ccc23)CC1)c1ccc(Cl)cc1 [Compound 293, (R)-N-(1-(4-chlorophenyl)ethyl)-4-(6-(1-methyl-1H-pyrazol-4-yl)pyrazolo[1,5-a]pyridin-3-yl)piperazine-1-sulfonamide] | 5.25 µM | 7.29 | – | –
9 | Cc1c(-c2ccc3c(N4CCN(C(=O)OC(C)(C)C)CC4)cnn3c2)cnn1C [Compound 221, tert-butyl 4-(6-(1,5-dimethyl-1H-pyrazol-4-yl)pyrazolo[1,5-a]pyridin-3-yl)piperazine-1-carboxylate] | 0.506 µM | 6.61 | – | –
10 | Cn1cc(-c2ccc3c(C4=CCN(c5ncc(Cc6ccccc6)cn5)CC4)cnn3c2)cn1 [Compound 60, 3-[1-(5-benzylpyrimidin-2-yl)-1,2,3,6-tetrahydropyridin-4-yl]-6-(1-methyl-1H-pyrazol-4-yl)pyrazolo[1,5-a]pyridine] | 5.03 µM | 2.92 | – | –
11 | CC(C)NC(=O)N1CCN(c2cnn3cc(-c4cnn(C)c4)ccc23)CC1 [Compound 47, N-isopropyl 4-[6-(1-methyl-1H-pyrazol-4-yl)pyrazolo[1,5-a]pyridin-3-yl]piperazine-1-carboxamide] | 3.99 µM | 1.13 | – | –
12 | Cn1cc(-c2ccc3c(N4CCN(C5=NCC(c6ccccc6)O5)CC4)cnn3c2)cn1 (stereo not drawn) [Compound 56, 6-(1-Methyl-1H-pyrazol-4-yl)-3-[4-(5-phenyl-4,5-dihydro-1,3-oxazol-2-yl)piperazin-1-yl]pyrazolo[1,5-a]pyridine] | 1.44 µM | 4.54 | – | –
13 | Cn1cc(-c2ccc3c(N4CCN(c5ncc(CCc6ccccc6)cn5)CC4)cnn3c2)cn1 [Compound 152, 6-(1-methyl-1H-pyrazol-4-yl)-3-(4-(5-phenethylpyrimidin-2-yl)piperazin-1-yl)pyrazolo[1,5-a]pyridine] | 7.19 µM | 4.33 | – | –
14 | CN(CCCNc1cnn2cc(-c3cnn(C)c3)ccc12)c1ncc(Cc2ccccc2)cn1 [Compound 129, N^1-(5-benzylpyrimidin-2-yl)-N^1-methyl-N^3-(6-(1-methyl-1H-pyrazol-4-yl)pyrazolo[1,5-a]pyridin-3-yl)propane-1,3-diamine] | > 10 µM | 2.27 | – | –
15 | Cn1cc(-c2ccc3c(N4CCN(c5nnc(Cc6ccccc6)s5)CC4)cnn3c2)cn1 [Compound 306, 2-benzyl-5-(4-(6-(1-methyl-1H-pyrazol-4-yl)pyrazolo[1,5-a]pyridin-3-yl)piperazin-1-yl)-1,3,4-thiadiazole] | 0.00231 µM | 4.37 | – | –
16 | Cn1cc(-c2ccc3c(N4CCN(c5ncc(Cn6ccc7ccccc76)cn5)CC4)cnn3c2)cn1 [Compound 191, 3-(4-(5-((1H-indol-1-yl)methyl)pyrimidin-2-yl)piperazin-1-yl)-6-(1-methyl-1H-pyrazol-4-yl)pyrazolo[1,5-a]pyridine] | 0.287 µM | 23.57 | – | –
17 | CN(Cc1ccccc1)C(=O)N1CCN(c2cnn3cc(-c4cnn(C)c4)ccc23)CC1 [Compound 162, N-benzyl-N-methyl-4-(6-(1-methyl-1H-pyrazol-4-yl)pyrazolo[1,5-a]pyridin-3-yl)piperazine-1-carboxamide] | 1.48 µM | 2.90 | – | –
18 | CC(C)OC(=O)N1CCN(c2cnn3cc(-c4cnn(C)c4)ccc23)CC1 [Compound 31, isopropyl 4-[6-(1-methyl-1H-pyrazol-4-yl)pyrazolo[1,5-a]pyridin-3-yl]piperazine-1-carboxylate] | 0.244 µM | 9.76 | – | 6.22
19 | CN(C)CCn1cc(-c2ccc3c(N4CCN(c5ncc(Cc6ccccc6)cn5)CC4)cnn3c2)cn1 [Compound 43, 2-(4-{3-[4-(5-benzylpyrimidin-2-yl)piperazin-1-yl]pyrazolo[1,5-a]pyridin-6-yl}-1H-pyrazol-1-yl)-N,N-dimethylethanamine] | 0.385 µM | 12.48 | – | 6.92
20 | Cn1cc(-c2ccc3c(N4CCN(c5ncc([C@H](O)[C@@H]6CCCOC6)cn5)CC4)cnn3c2)cn1 [Compound 192, (R)-(2-(4-(6-(1-methyl-1H-pyrazol-4-yl)pyrazolo[1,5-a]pyridin-3-yl)piperazin-1-yl)pyrimidin-5-yl)((R)-tetrahydro-2H-pyran-3-yl)methanol] | 0.031 µM | 14.76 | – | –
21 | Cn1cc(-c2ccc3c(N4CCN(c5ncc(CC6CCCCC6)cn5)CC4)cnn3c2)cn1 [Compound 62, 3-{4-[5-(cyclohexylmethyl)pyrimidin-2-yl]piperazin-1-yl}-6-(1-methyl-1H-pyrazol-4-yl)pyrazolo[1,5-a]pyridine] | 0.415 µM | 6.53 | – | –
22 | Cn1cc(-c2ccn3c(N4CCN(c5ncc(Cc6ccccc6)cn5)CC4)cnc3n2)cn1 [Compound 121, 3-(4-(5-benzylpyrimidin-2-yl)piperazin-1-yl)-7-(1-methyl-1H-pyrazol-4-yl)imidazo[1,2-a]pyrimidine] | 0.818 µM | 4.71 | – | –
23 | Cn1nnc(-c2ccc3c(N4CCN(C(=O)OC(C)(C)C)CC4)cnn3c2)n1 [Compound 237, tert-butyl 4-(6-(2-methyl-2H-tetrazol-5-yl)pyrazolo[1,5-a]pyridin-3-yl)piperazine-1-carboxylate] | > 10 µM | 0.95 | – | –
24 | CC(C)(C)OC(=O)N1CCN(c2cnn3cc(-c4cn(CCCN5CCOCC5)cn4)ccc23)CC1 [Compound 231, tert-butyl 4-(6-(1-(3-morpholinopropyl)-1H-imidazol-4-yl)pyrazolo[1,5-a]pyridin-3-yl)piperazine-1-carboxylate] | 0.395 µM | 9.34 | – | –
25 | CC(C)(C)OC(=O)N1CCN(c2cnn3cc(C4CCOC4)ccc23)CC1 (stereo not drawn) [Compound 304, tert-butyl 4-(6-(tetrahydrofuran-3-yl)pyrazolo[1,5-a]pyridin-3-yl)piperazine-1-carboxylate] | > 10 µM | 1.77 | – | –
26 | CC(C)(C)OC(=O)N1CCN(c2cnn3cc(-c4cncn4CCO)ccc23)CC1 [Compound 230, tert-butyl 4-(6-(1-(2-hydroxyethyl)-1H-imidazol-5-yl)pyrazolo[1,5-a]pyridin-3-yl)piperazine-1-carboxylate] | > 10 µM | 0.97 | – | –
